Results from US5643877A, “Compounds comprising gonadotropin releasing hormone (GnRH) and methods for controlling reproduction in fish” (University of Maryland Biotechnology Institute, priority 1994, dated 1997).
“Also recorded” adds a separate entry of the source. Square brackets hold non-standard residues; d marks the D form. Peptide text beside a SMILES is read from it. pGlu = O=C1CC[C@@H](C(=O)O)N1

Test system: GtH-II secretion in female gilthead seabream
Experiment: In vivo gonadotropin-releasing potency: plasma GtH-II by homologous radioimmunoassay after intramuscular injection of GnRH peptides
Design: species or system Sparus aurata
Conditions: for gonadotropin (GtH-II) secretion of sbGnRH, its analogs and the mGnRH analog compared (in words) / blood GtH-II levels, times higher than in sbGnRH-injected females: third experiment; for gonadotropin (GtH-II) secretion of sbGnRH, its analogs and the mGnRH analog compared (in words): 5 μg/kg body weight, 1.5, 4 and 8 hours post-injection; for GtH-II levels, times higher than in saline-injected fish: 25 μg/kg body weight; for stimulation of GtH-II secretion (in words): reproductively mature seabream females, native peptides injected at 5 and 25 μg/kg body weight
Method: During the spawning season, 104 female seabream at 2 years of age, weighing 458±104 g, with preovulatory oocytes of 500-600 μm in diameter were selected for experimentation. Oocyte developmental stage was determined by microscopic examination of a freshly removed ovarian biopsy, as previously described (Zohar et al., 1979, J. Fish Biol. 15:665-670). The bioactivity of the native forms of GnRH and of the GnRH analogs was studied in three consecutive experiments, carried out on day 1, day 3, and day 8. The first experiment included four groups of eight females. Three groups were injected with 5 μg/kg body weight of either sbGnRH, sGnRH or cGnRH-II. The fourth group was injected with saline. The second experiment included four similar groups, except that the peptides were injected at a dose of 25 μg/kg body weight. The third experiment included five groups, each with eight females. One group was injected with native sbGnRH; two other groups were each injected with an analog of sbGnRH, the [D-Ala^6,Pro^9 -NEt]-sbGnRH and [D-Arg^6,Pro^9 -NEt]-sbGnRH; another group was injected with the analog of the mammalian GnRH, [D-Ala^6,Pro^9 -NEt]-mGnRH; and the last group was injected with saline. All peptides in the third experiment were injected at a dose of 5 μg/kg body weight.
In all experiments, the tested peptides were injected into the dorsal musculature, in a volume of 0.5 ml/kg body weight. Each group of fish was held in a separate 600 liter tank exposed to natural photoperiod conditions and supplied with sea water at 20° C. Fish were bled before the injection of the peptides and at 1.5, 4 and 8 hours post-injection. At each bleeding time, 1 ml of blood was removed from the caudal vessels, using a 1 ml syringe fit with a 21G needle. Prior to injection and bleeding, fish were anesthetized in 0.2 ppt of 2-phenoxy-ethanol. Blood was immediately centrifuged and plasma removed and frozen. Levels of seabream GtH-II in the plasma samples were measured using a homologous and specific radioimmunoassay, as previously described (Zohar et al., 1990, Aquaculture 88:189-204). Blood GtH-II levels in the various groups were statistically compared using ANOVA followed by Duncan new multiple range comparison test.

[1] = 5 μg/kg body weight, 1.5 hours post-injection
[2] = 5 μg/kg body weight, 4 hours after injection
[3] = 5 μg/kg dose, 1.5 hr after injection
[4] = 25 μg/kg body weight, 1.5, 4 and 8 hours post-injection
[5] = 25 μg/kg dose, 1.5 hr after injection
[6] = native GnRH forms, 5 and 25 μg/kg body weight

SMILES | gonadotropin (GtH-II) secretion of sbGnRH, its analogs and the mGnRH analog compared (in words) | blood GtH-II levels, times higher than in sbGnRH-injected females (5 μg/kg body weight, 1.5 hr) | blood GtH-II levels, times higher than in sbGnRH-injected females (5 μg/kg body weight, 8 hr) | blood GtH-II levels, times higher than in control females [1] | blood GtH-II levels, times higher than in control females [2] | blood GtH-II levels versus control females (5 μg/kg body weight, 8 hours post-injection) | potency in inducing GtH-II secretion, times more potent than sGnRH [3] | potency in inducing GtH-II secretion, times more potent than sbGnRH [3] | GtH-II-releasing potency of the native peptides compared (in words) [4] | GtH-II levels, times higher than in saline-injected fish (1.5 hr after injection) | GtH-II levels, times higher than in saline-injected fish (4 hr after injection) | GtH-II levels, times higher than in saline-injected fish (8 hr after injection) | potency in inducing GtH-II secretion, times more potent than sGnRH [5] | potency in inducing GtH-II secretion, times more potent than sbGnRH [5] | GtH-II-releasing potency of the native peptides compared (in words) [6] | stimulation of GtH-II secretion (in words)
CCNC(=O)[C@@H]1CCCN1C(=O)[C@H](CO)NC(=O)[C@H](CC(C)C)NC(=O)[C@@H](C)NC(=O)[C@H](Cc1ccc(O)cc1)NC(=O)[C@H](CO)NC(=O)[C@H](Cc1c[nH]c2ccccc12)NC(=O)[C@H](Cc1c[nH]cn1)NC(=O)[C@@H]1CCC(=O)N1 [[D-Ala^6,Pro^9-.NEt]-sbGnRH, [D-Ala^6,Pro^9 -NEt]-sbGnRH] ([pGlu]HWSY[dA]LSP-NHEt) | significantly stronger gonadotropin secretion than did the native sbGnRH; also recorded: equipotent; also recorded: much less potent; also recorded: in the same range as those induced by the native sGnRH and cGnRH-II | 5 times | 2.5 times | – | – | – | – | – | – | – | – | – | – | – | – | –
CCNC(=O)[C@@H]1CCCN1C(=O)[C@H](CO)NC(=O)[C@H](CC(C)C)NC(=O)[C@@H](CCCNC(=N)N)NC(=O)[C@H](Cc1ccc(O)cc1)NC(=O)[C@H](CO)NC(=O)[C@H](Cc1c[nH]c2ccccc12)NC(=O)[C@H](Cc1c[nH]cn1)NC(=O)[C@@H]1CCC(=O)N1 [[D-Arg^6, Pro^9 -NEt]-sbGnRH] ([pGlu]HWSY[dR]LSP-NHEt) | – | 5 times | 2.5 times | – | – | – | – | – | – | – | – | – | – | – | – | –
NC(=O)CNC(=O)[C@@H]1CCCN1C(=O)[C@H](Cc1ccc(O)cc1)NC(=O)[C@H](Cc1c[nH]c2ccccc12)NC(=O)CNC(=O)[C@H](Cc1c[nH]cn1)NC(=O)[C@H](CO)NC(=O)[C@H](Cc1c[nH]c2ccccc12)NC(=O)[C@H](Cc1c[nH]cn1)NC(=O)[C@@H]1CCC(=O)N1 [cGnRH-II, pGlu-His-Trp-Ser -His-Gly-Trp-Tyr-Pro-Gly-NH2, reference compound] ([pGlu]HWSHGWYPG-NH2) | – | – | – | 14.50 times | 6.2 times | higher GtH-II levels | 1.75 times | 8 times | cGnRH-II>sGnRH>sbGnRH; also recorded: induced higher GtH-II secretion than did sGnRH or sbGnRH | 31.0 times | 10.9 times | 5.5 times | 2 times | 7 times | significantly more potent than the novel sbGnRH | significantly stimulate GtH-II secretion
CC(C)C[C@H](NC(=O)CNC(=O)[C@H](Cc1ccc(O)cc1)NC(=O)[C@H](CO)NC(=O)[C@H](Cc1c[nH]c2ccccc12)NC(=O)[C@H](Cc1c[nH]cn1)NC(=O)[C@@H]1CCC(=O)N1)C(=O)N[C@@H](CO)C(=O)N1CCC[C@H]1C(=O)NCC(N)=O [sbGnRH, pGlu-His-Trp-Ser-Tyr-Gly-Leu-Ser-Pro-Gly-NH 2] | did not induce significant release of GtH-II | – | – | tended to be higher than in the control females | not different from control levels | – | – | – | cGnRH-II>sGnRH>sbGnRH | 4.4 times | – | – | – | – | less active than cGnRH-II and sGnRH | significantly stimulate GtH-II secretion
